The supplement of paper PMC10307832

Legend:
Assay in all cases: relative viability (nuclei count vs DMSO), 5 days (fraction); higher = more cells survive
LXF-289 = test system: LXF-289
Method in brief: (§1)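 Medians of duplicate plates are given as relative viability. That measure is the nuclei count in treated wells divided by the count in vehicle wells. Counts were taken on 4× images of lung cancer cell lines in 1536-well plates, 5 days after pin-tool dosing the day after seeding with one drug alone or a fixed anchor-drug dose plus five library-drug doses (not always all listed) in √10 steps.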

UMC-11 = test system: UMC-11
Method in brief: as §1

LK-2 = test system: LK-2
Method in brief: as §1

HCC-827 = test system: HCC-827
Method in brief: as §1

NCI-H2405 = test system: NCI-H2405
Method in brief: as §1

NCI-H3122 = test system: NCI-H3122
Method in brief: as §1

EKVX = test system: EKVX
Method in brief: as §1

LCLC-97TM1 = test system: LCLC-97TM1
Method in brief: as §1

NCI-H1355 = test system: NCI-H1355
Method in brief: as §1

SK-LU-1 = test system: SK-LU-1
Method in brief: as §1

NCI-H441 = test system: NCI-H441
Method in brief: as §1

NCI-H2170 = test system: NCI-H2170
Method in brief: as §1

PC-3 [JPC-3] = test system: PC-3 [JPC-3]
Method in brief: as §1

NCI-H1993 = test system: NCI-H1993
Method in brief: as §1

H3255 = test system: H3255
Method in brief: as §1

LU99A = test system: LU99A
Method in brief: as §1

SW 1573 = test system: SW 1573
Method in brief: as §1

HOP-62 = test system: HOP-62
Method in brief: as §1

EPLC-272H = test system: EPLC-272H
Method in brief: as §1

NCI-H2228 = test system: NCI-H2228
Method in brief: as §1

CN1CCN(CCOc2cc(OC3CCOCC3)c3c(Nc4c(Cl)ccc5c4OCO5)ncnc3c2)CC1 [Saracatinib] + Cc1nc(NC(=O)N2CCC[C@H]2C(N)=O)sc1-c1ccnc(C(C)(C)C(F)(F)F)c1 [Alpelisib] (partner 2 µM)
relative viability (LXF-289; first compound 0.02 µM): 1.03 | relative viability (LXF-289; first compound 0.2 µM): 0.908 | relative viability (LXF-289; first compound 0.6325 µM): 1.02 | relative viability (LXF-289; first compound 2 µM): 0.985 | relative viability (UMC-11; first compound 0.02 µM): 0.99 | relative viability (UMC-11; first compound 0.6325 µM): 1.03 | relative viability (UMC-11; first compound 2 µM): 0.768 | relative viability (LK-2; first compound 0.02 µM): 0.956 | relative viability (LK-2; first compound 0.2 µM): 0.851 | relative viability (LK-2; first compound 0.6325 µM): 1.02 | relative viability (LK-2; first compound 2 µM): 0.531 | relative viability (HCC-827; first compound 0.02 µM): 0.922 | relative viability (HCC-827; first compound 0.2 µM): 0.524 | relative viability (HCC-827; first compound 0.6325 µM): 0.195 | relative viability (HCC-827; first compound 2 µM): 0.157 | relative viability (NCI-H2405; first compound 0.02 µM): 0.796 | relative viability (NCI-H2405; first compound 0.2 µM): 0.821 | relative viability (NCI-H2405; first compound 0.6325 µM): 0.413 | relative viability (NCI-H2405; first compound 2 µM): 0.284 | relative viability (NCI-H3122; first compound 0.02 µM): 0.822 | relative viability (NCI-H3122; first compound 0.6325 µM): 0.664 | relative viability (NCI-H3122; first compound 2 µM): 0.46 | relative viability (EKVX; first compound 0.02 µM): 0.897 | relative viability (EKVX; first compound 0.2 µM): 0.551 | relative viability (EKVX; first compound 0.6325 µM): 0.671 | relative viability (EKVX; first compound 2 µM): 0.325 | relative viability (LCLC-97TM1; first compound 0.02 µM): 0.198 | relative viability (LCLC-97TM1; first compound 0.2 µM): 0.195 | relative viability (LCLC-97TM1; first compound 0.6325 µM): 0.357 | relative viability (LCLC-97TM1; first compound 2 µM): 0.282 | relative viability (NCI-H1355; first compound 0.02 µM): 0.848 | relative viability (NCI-H1355; first compound 0.2 µM): 0.833 | relative viability (NCI-H1355; first compound 0.6325 µM): 0.861 | relative viability (NCI-H1355; first compound 2 µM): 0.794 | relative viability (SK-LU-1; first compound 0.02 µM): 0.634 | relative viability (SK-LU-1; first compound 0.2 µM): 0.673 | relative viability (SK-LU-1; first compound 0.6325 µM): 0.44 | relative viability (SK-LU-1; first compound 2 µM): 0.297 | relative viability (NCI-H441; first compound 0.02 µM): 0.715 | relative viability (NCI-H441; first compound 0.2 µM): 0.544 | relative viability (NCI-H441; first compound 0.6325 µM): 1.03 | relative viability (NCI-H441; first compound 2 µM): 0.772 | relative viability (NCI-H2170; first compound 0.02 µM): 0.731 | relative viability (NCI-H2170; first compound 0.2 µM): 0.749 | relative viability (NCI-H2170; first compound 0.6325 µM): 0.752 | relative viability (NCI-H2170; first compound 2 µM): 0.464 | relative viability (PC-3 [JPC-3]; first compound 0.02 µM): 0.998 | relative viability (PC-3 [JPC-3]; first compound 0.2 µM): 0.956 | relative viability (PC-3 [JPC-3]; first compound 0.6325 µM): 0.876 | relative viability (PC-3 [JPC-3]; first compound 2 µM): 0.53 | relative viability (NCI-H1993; first compound 0.02 µM): 0.68 | relative viability (NCI-H1993; first compound 0.2 µM): 0.531 | relative viability (NCI-H1993; first compound 2 µM): 0.656 | relative viability (H3255; first compound 0.02 µM): 0.624 | relative viability (H3255; first compound 0.2 µM): 0.556 | relative viability (H3255; first compound 0.6325 µM): 0.366 | relative viability (H3255; first compound 2 µM): 0.166 | relative viability (LU99A; first compound 0.02 µM): 0.568 | relative viability (LU99A; first compound 0.2 µM): 0.371 | relative viability (LU99A; first compound 0.6325 µM): 0.513 | relative viability (LU99A; first compound 2 µM): 0.417 | relative viability (SW 1573; first compound 0.02 µM): 0.83 | relative viability (SW 1573; first compound 0.2 µM): 0.689 | relative viability (SW 1573; first compound 0.6325 µM): 0.833 | relative viability (SW 1573; first compound 2 µM): 0.51 | relative viability (HOP-62; first compound 0.02 µM): 0.989 | relative viability (HOP-62; first compound 0.2 µM): 0.782 | relative viability (HOP-62; first compound 0.6325 µM): 0.801 | relative viability (HOP-62; first compound 2 µM): 0.749 | relative viability (EPLC-272H; first compound 0.02 µM): 1.03 | relative viability (EPLC-272H; first compound 0.2 µM): 0.732 | relative viability (EPLC-272H; first compound 0.6325 µM): 0.942 | relative viability (EPLC-272H; first compound 2 µM): 0.821 | relative viability (NCI-H2228; first compound 0.02 µM): 0.734 | relative viability (NCI-H2228; first compound 0.2 µM): 0.562 | relative viability (NCI-H2228; first compound 0.6325 µM): 0.532 | relative viability (NCI-H2228; first compound 2 µM): 0.365
